Experimental data as given in patent US20090004211A1, “METHOD FOR EFFECTING LOCALIZED, NON-SYSTEMIC AND SYSTEMIC, IMMUNOGENIC TREATMENT OF CANCER USING ERP57 TRANSLOCATION” (priority 2006, published 2009).

What was measured:
CT26 cells = assay: Phagocytosis assay: uptake of treated tumor cells by dendritic cells; type: cell-based, mouse; settings: before apoptotic changes
Method: BM cells were flushed from the tibias and femurs of BALB/c mice with culture medium composed of RPMA 1640 medium supplemented with 10% heat-inactivated FBS, sodium pyruvate, […] 2-ME. 10 mM HEPES (pH 7.4), and penicillin/streptomycin. After one centrifugation, BM cells were resuspended in Tris-ammonium chloride for 2 min to lyse RBC. After one more centrifugation, BM cells (1×10^6 cells/ml) were cultured in medium supplemented with 100 ng/ml recombinant mouse FLT3 ligand in 6-well plates. […] In 12-well plates, […] adherent CT26 cells were labeled with Celltracker Orange and then incubated with drugs. […] Alternatively CT26 cells were coated with 3 μg/10^6 cells of rCRT on ice for 30 minutes and washed twice prior to addition to dendritic cells. Cells were then harvested, washed three times with medium supplemented with FBS and cocultured with immature DC for 2 hours at a ratio of 1:1 and 1:5. At the end of the incubation, cells were harvested with Versene, pooled with non-adherent cells present in the supernatant, washed and stained with CD11c-FITC antibody. Phagocytosis was assessed by FACS analysis of double positive cells. Phagocytic indexes refer to the ratio between values obtained at […] of co-incubation between DC and tumor cells. Trypsinized CT26 cells were enucleated as described. Briefly, cells were treated in 2 ml of complete RPMI medium containing cytochalasin B (10 μg/ml; Sigma) and DNase I (80 U/ml; Sigma). Cell suspension was adjusted to a final concentration of 5×10^6/ml and incubated at 37° C. for 45 minutes before being layered onto a previously prepared discontinuous Ficoll density gradient (3 ml of 100%, in 1 ml of 90% and 3 ml of 55% Ficoll Paque layer containing 5 μg/ml cytochalasin B and 40 U/ml DNase I; gradients were prepared in ultracentrifuge tubes and pre-equilibrated at 37° C. in a CO2 incubator overnight). Gradients containing cell suspensions were centrifugated in a prewarmed SW41 Beckman rotor at 25 000 rpm for 20 minutes at 30° C. The cytoplasts-enriched fraction was collected from the interface between 90 and 100% Ficoll layers, washed in complete RPMI 1640 medium, and incubated at 37° C. The cells were incubated with mitoxantrone (MTX), calyculin (CA), salubrinal (Sal) and toutomycin (TA) for the period of time indicated in the experiment. […] Alternatively cythoplasts were cocultured with immature DC for 2 hours at a ratio of 1:1 and 1:5. At the end of the incubation, cells were harvested with versene, pooled with non-adherent cells present in the supernatant, washed and stained with CD11c-FITC antibody. Phagocytosis was assessed by FACS analysis of double positive cells.

ERP57 = assay: Biotinylation of cell surface proteins, 2D gel electrophoresis and mass spectrometry: ERP57; type: cell-based, mouse; settings: 4 h treatment, vs untreated cells
Method: Biotinylation and recovery of cell surface proteins were performed with a method adopted from Gottardi et al. (Gottardi, C. J. et al., “Biotinylation and assessment of membrane polarity: caveats and methodological concerns,” Am J Physiol 268, F285-295 (1995)) and Hanwell et al. (Hanwell, D. et al., “Trafficking and cell surface stability of the epithelial Na+ channel expressed in epithelial Madin-Darby canine kidney cells,” J Biol Chem 277, 9772-9779 (2002)). Briefly, 20×10^6 CT26 cells grown on 75 cm^2 flask were placed on ice and washed three times with ice-cold PBS-Ca^2+—Mg^2+ (PBS with 0.1 mM CaCl2 and 1 mM MgCl2). Membrane proteins were then biotinylated by a 30-minute incubation at 4° C. with NHS-SS-biotin 1.25 mg/ml freshly diluted into biotinylation buffer (10 mM triethanolamine, 2 mM CaCl2, 150 mM NaCl, pH 7.5) with gentle agitation. CT26 cells were rinsed with PBS-Ca^2+—Mg^2++glycine (100 mM) and washed in this buffer for 20 minutes at 4° C. to quench unreacted biotin. The cells were then rinsed twice with PBS-Ca^2+—Mg^2+, scraped in cold PBS, and pelleted at 2,000 rpm at 4° C. The pellets were solubilized for 45 min in […] of lysis buffer (1% Triton X-100, 150 mM NaCl, 5 mM EDTA, 50 mM Tris, pH 7.5) containing protease inhibitors. The lysates were clarified by centrifugation at 14,000×g for 10 min at 4° C., and the supernatants were incubated overnight with packed streptavidin-agarose beads to recover biotinylated proteins. The beads were then pelleted by centrifugation, and aliquots of supernatants were taken to represent the unbound, intracellular pool of proteins. Biotinylated proteins were eluted from the beads by heating to 100° C. for 5 minutes in SDS-PAGE sample buffer before loading onto a 10% SDS-PAGE gel as described above. To ensure the absence of leakage of biotin into the cells, the absence of the intracellular protein actin and GAPDH in biotinylated extracts was systematically verified.
Purified proteins were precipitated using the Ettan 2-D clean up kit were subsequently resuspended in urea buffer (7M urea, 2M thiourea, 2% Chaps, 1% Sulfobetaine SB3-10, 1% Amidosulfobetaine ASB14, 50 mM DTT). For the first dimension of protein separation, isoelectric focusing (IEF) was performed using 18-cm immobilized nonlinear pH gradient strips (pH 3 to 10; GE Healthcare) on a electrophoresis unit. […]

CRT [1] = assay: Fluorescence detection of cell surface CRT (cytofluorometry); settings: intact cells
Method: CT26 cells (on a glass slide or in 12-well plates) were first washed with FACS buffer (1×PBS, 5% fetus bovine serum, and 0.1% sodium azide) and then incubated with rabbit anti-mouse CRT antibody (1:100, Stressgen), or rabbit anti-mouse ERP57 antibody (abcam) in FACS buffer at 4° C. for 30 min. […] After washing three times with FACS buffer, surface CRT and ERP57 was detected by cytofluorometric analysis on a FACS Vantage. In some experiments, cells were fixed with 4% paraformaldehyde, counterstained with Hoechst (2 μM; Sigma), followed by fluorescence microscopic assessment.
Trypsinized CT26 cells were enucleated as described. Briefly, cells were treated in 2 ml of complete RPMI medium containing cytochalasin B (10 μg/ml; Sigma) and DNase I (80 U/ml; Sigma). […] Gradients containing cell suspensions were centrifugated in a prewarmed SW41 Beckman rotor at 25 000 rpm for 20 minutes at 30° C. […] Then the cell surface CRT was detected (see materials and methods) and the viability was determined by with propidium iodine staining (2 μg/ml, Sigma) for 5 min followed by cytofluorometric analysis.

CT26 tumor cells = assay: Anti-tumor vaccination: treated dying CT26 cells injected s.c., challenge with live tumor cells in opposite flank; type: in vivo, BALB/c mice; settings: CT26 cells treated in vitro with agent alone, immunocompetent BALB/c mice
CRT [2] = assay: Biotinylation of cell surface proteins, 2D gel electrophoresis and mass spectrometry: CRT; type: cell-based, mouse; settings: 4 h treatment, vs untreated cells
Method: Biotinylation and recovery of cell surface proteins were performed with a method adopted from Gottardi et al. (Gottardi, C. J. et al., “Biotinylation and assessment of membrane polarity: caveats and methodological concerns,” Am J Physiol 268, F285-295 (1995)) and Hanwell et al. (Hanwell, D. et al., “Trafficking and cell surface stability of the epithelial Na+ channel expressed in epithelial Madin-Darby canine kidney cells,” J Biol Chem 277, 9772-9779 (2002)). Briefly, 20×10^6 CT26 cells grown on 75 cm^2 flask were placed on ice and washed three times with ice-cold PBS-Ca^2+—Mg^2+ (PBS with 0.1 mM CaCl2 and 1 mM MgCl2). Membrane proteins were then biotinylated by a 30-minute incubation at 4° C. with NHS-SS-biotin 1.25 mg/ml freshly diluted into biotinylation buffer (10 mM triethanolamine, 2 mM CaCl2, 150 mM NaCl, pH 7.5) with gentle agitation. CT26 cells were rinsed with PBS-Ca^2+—Mg^2++glycine (100 mM) and washed in this buffer for 20 minutes at 4° C. to quench unreacted biotin. The cells were then rinsed twice with PBS-Ca^2+—Mg^2+, scraped in cold PBS, and pelleted at 2,000 rpm at 4° C. The pellets were solubilized for 45 min in […] of lysis buffer (1% Triton X-100, 150 mM NaCl, 5 mM EDTA, 50 mM Tris, pH 7.5) containing protease inhibitors. […]

In the case of `COc1cccc2c1C(=O)c1c(O)c3c(c(O)c1C2=O)C[C@@](O)(C(=O)CO)C[C@@H]3O[C@H]1C[C@H](N)[C@H](O)[C@H](C)O1` [doxorubicin], the “time after treatment at which tumor cells are phagocytosed by DC” value (CT26 cells) was “within a few hours after treatment”, the “induction of surface ERP57 spot 1, factor” value (ERP57) was 4.1 and the “induction of surface ERP57 spot 2, factor” value (ERP57) was 3.4. For the same compound, the “induction of surface ERP57 spot 3, factor” value (ERP57) was 8, the “induction of surface ERP57 spot 4, factor” value (ERP57) was 8.1 and the “time after treatment at which CRT exposure is detectable” value (CRT [1]) was 1 h. The “immunogenicity of cell death (protection against tumor growth on rechallenge)” value (CT26 tumor cells) was “elicited immunogenic cell death” and the “induction of surface CRT, factor” value (CRT [2]) was 6.
